According to US9365614B2, “IAP BIR domain binding compounds” (priority 2006, dated 2016):

These compounds were tested on MDA-MB231 cells (assay: Survival MTT assay, MDA-MB-231). Details: Homo sapiens, 72 h.
Assay type: cell-based
Description: (§1) One day prior the treatment with compound, 2000 to 4000 cells per well were plated in a tissue culture treated 96 well format dish with 100 ul of media and incubated at 37° C., 5% CO2. On the day of compound treatment, compounds were diluted with cell culture media to a working stock concentration of 2×. 100 uL of diluted compound were then added to each well. The treated plate was incubated for 72 h at 37° C., 5% CO2. Upon incubation, the cell viability was assessed as followed 20 uL of MTT reagent at 5 mg/ml were added per well to cell plate. The plate was incubated for 2 h at 37° C. in presence of 5% CO2. The supernatant was then removed from the plate and 100 uL of isopropanol were added. The absorbance was measured in a TECAN spectrophotometer at 570 nm. The percentage of viability was expressed in percentage of the signal obtained with non treated cells.

Compound	EC50
CC(C)(C)[C@H](NC(=O)[C@@H](N)CO)C(=O)N1C[C@@H](OCC#CC#CCO[C@H]2C[C@@H](C(=O)N[C@@H]3CCCc4ccccc43)N(C(=O)[C@@H](NC(=O)[C@@H](N)CO)C(C)(C)C)C2)C[C@H]1C(=O)N[C@@H]1CCCc2ccccc21 [Compound 5]	> 1000 nM
CN[C@@H](C)C(=O)N[C@H](C(=O)C1C[C@@H](NC(=O)CCCCCCCCC(=O)N[C@H]2C[C@@H](C(=O)N[C@@H]3CCCc4ccccc43)N(C(=O)[C@@H](NC(=O)[C@H](C)NC)C(C)(C)C)C2)C[C@H]1C(=O)N[C@@H]1CCCc2ccccc21)C(C)(C)C (some centres unmarked) [Compound 2]	< 50 nM
CN[C@@H](C)C(=O)N[C@H](C(=O)N1C[C@@H](OCC#CC#CCO[C@H]2C[C@@H](C(=O)N[C@@H]3CCCc4ccccc43)N(C(=O)[C@@H](NC(=O)[C@H](C)NC)C(C)(C)C)C2)C[C@H]1C(=O)N[C@@H]1CCCc2ccccc21)C(C)(C)C [Compound 1]	< 50 nM

The compounds below were run on SKOV-3 cells (assay: Survival MTT assay, SKOV-3). Details: Homo sapiens, SK-OV-3, 72 h, read-out: SKOV-3 EC50.
Assay type: cell-based
Description: as §1

Compound	EC50
CN[C@@H](C)C(=O)N[C@H](C(=O)C1C[C@@H](NC(=O)CCCCCCCCC(=O)N[C@H]2C[C@@H](C(=O)N[C@@H]3CCCc4ccccc43)N(C(=O)[C@@H](NC(=O)[C@H](C)NC)C(C)(C)C)C2)C[C@H]1C(=O)N[C@@H]1CCCc2ccccc21)C(C)(C)C (some centres unmarked) [Compound 2]	< 50 nM
CN[C@@H](C)C(=O)N[C@H](C(=O)N1C[C@@H](NC(=O)CNC(=O)c2ccc(C(=O)NCC(=O)N[C@H]3C[C@@H](C(=O)N[C@@H]4CCCc5ccccc54)N(C(=O)[C@@H](NC(=O)[C@H](C)NC)C(C)(C)C)C3)cc2)C[C@H]1C(=O)N[C@@H]1CCCc2ccccc21)C(C)(C)C [Compound 35]	< 250 nM
CN[C@@H](C)C(=O)N[C@H](C(=O)N1C[C@@H](NC(=O)c2ccc(C(=O)N[C@H]3C[C@@H](C(=O)NCCc4ccc(F)cc4)N(C(=O)[C@@H](NC(=O)[C@H](C)NC)C(C)(C)C)C3)cc2)C[C@H]1C(=O)NCCc1ccc(F)cc1)C(C)(C)C [Compound 19]	< 50 nM
CN[C@@H](C)C(=O)N[C@H](C(=O)N1C[C@@H](NC(=O)c2ccc(C(=O)N[C@H]3C[C@@H](C(=O)NC[C@H](C)c4ccccc4)N(C(=O)[C@@H](NC(=O)[C@H](C)NC)C(C)(C)C)C3)cc2)C[C@H]1C(=O)NC[C@@H](C)c1ccccc1)C(C)(C)C [Compound 21]	< 50 nM
CN[C@@H](C)C(=O)N[C@H](C(=O)N1C[C@@H](NC(=O)c2ccc(C(=O)N[C@H]3C[C@@H](C(=O)NC4c5ccccc5-c5ccccc54)N(C(=O)[C@@H](NC(=O)[C@H](C)NC)C(C)(C)C)C3)cc2)C[C@H]1C(=O)NC1c2ccccc2-c2ccccc21)C(C)(C)C [Compound 47]	< 50 nM
CN[C@@H](C)C(=O)N[C@H](C(=O)N1C[C@@H](NC(=O)CNC(=O)c2ccc(-c3ccc(C(=O)NCC(=O)N[C@H]4C[C@@H](C(=O)N[C@@H]5CCCc6ccccc65)N(C(=O)[C@@H](NC(=O)[C@H](C)NC)C(C)(C)C)C4)cc3)cc2)C[C@H]1C(=O)N[C@@H]1CCCc2ccccc21)C(C)(C)C [Compound 38]	< 250 nM
CN[C@@H](C)C(=O)N[C@H](C(=O)N1C[C@@H](NC(=O)c2ccc(C(=O)N[C@H]3C[C@@H](CN(CCc4ccccc4)C(=O)c4ccccc4)N(C(=O)[C@@H](NC(=O)[C@H](C)NC)C(C)(C)C)C3)cc2)C[C@H]1CN(CCc1ccccc1)C(=O)c1ccccc1)C(C)(C)C [Compound 27]	< 250 nM
CN[C@@H](C)C(=O)N[C@H](C(=O)N1C[C@@H](NS(=O)(=O)c2ccc3cc(S(=O)(=O)N[C@H]4C[C@@H](C(=O)N[C@@H]5CCCc6ccccc65)N(C(=O)[C@@H](NC(=O)[C@H](C)NC)C(C)(C)C)C4)ccc3c2)C[C@H]1C(=O)N[C@@H]1CCCc2ccccc21)C(C)(C)C [Compound 56]	< 50 nM
CN[C@@H](C)C(=O)N[C@H](C(=O)N1C[C@@H](NC(=O)c2ccc(C(=O)N[C@H]3C[C@@H](C(=O)N[C@H](C)c4ccccc4)N(C(=O)[C@@H](NC(=O)[C@H](C)NC)C(C)(C)C)C3)cc2)C[C@H]1C(=O)N[C@H](C)c1ccccc1)C(C)(C)C [Compound 49]	< 50 nM
CN[C@@H](C)C(=O)N[C@H](C(=O)N1C[C@@H](NC(=O)c2cccc(C(=O)N[C@H]3C[C@@H](C(=O)N[C@@H]4CCCc5ccccc54)N(C(=O)[C@@H](NC(=O)[C@H](C)NC)C(C)(C)C)C3)c2)C[C@H]1C(=O)N[C@@H]1CCCc2ccccc21)C(C)(C)C [Compound 40]	< 50 nM
CN[C@@H](C)C(=O)N[C@H](C(=O)N1C[C@@H](OCc2ccc(CO[C@H]3C[C@@H](C(=O)N[C@@H]4CCCc5ccccc54)N(C(=O)[C@@H](NC(=O)[C@H](C)NC)C(C)(C)C)C3)cc2)C[C@H]1C(=O)N[C@@H]1CCCc2ccccc21)C(C)(C)C [Compound 17]	< 50 nM
CN[C@@H](C)C(=O)N[C@H](C(=O)N1C[C@@H](OCC#CC#CCO[C@H]2C[C@@H](C(=O)N[C@@H]3CCCc4ccccc43)N(C(=O)[C@@H](NC(=O)[C@H](C)NC)C(C)(C)C)C2)C[C@H]1C(=O)N[C@@H]1CCCc2ccccc21)C(C)(C)C [Compound 1]	< 50 nM
CN[C@@H](C)C(=O)N[C@H](C(=O)N1C[C@@H](NC(=O)c2ccc(C(=O)N[C@H]3C[C@@H](C(=O)N[C@@H]4CCCc5ccccc54)N(C(=O)[C@@H](NC(=O)[C@H](C)NC)C(C)(C)C)C3)cc2)C[C@H]1C(=O)N[C@@H]1CCCc2ccccc21)C(C)(C)C [Compound 55]	< 50 nM
CN[C@@H](C)C(=O)N[C@H](C(=O)N1C[C@@H](NC(=O)c2ccc(Oc3ccc(C(=O)N[C@H]4C[C@@H](C(=O)N[C@@H]5CCCc6ccccc65)N(C(=O)[C@@H](NC(=O)[C@H](C)NC)C(C)(C)C)C4)cc3)cc2)C[C@H]1C(=O)N[C@@H]1CCCc2ccccc21)C(C)(C)C [Compound 16]	< 50 nM
CN[C@@H](C)C(=O)N[C@H](C(=O)N1C[C@@H](NC(=O)c2ccc(C(=O)N[C@H]3C[C@@H](C(=O)NC(C)C)N(C(=O)[C@@H](NC(=O)[C@H](C)NC)C(C)(C)C)C3)cc2)C[C@H]1C(=O)NC(C)C)C(C)(C)C [Compound 22]	< 250 nM
CN[C@@H](C)C(=O)N[C@H](C(=O)N1C[C@@H](NC(=O)c2ccc(C(=O)N[C@H]3C[C@@H](C(=O)N[C@@H](C)c4ccccc4)N(C(=O)[C@@H](NC(=O)[C@H](C)NC)C(C)(C)C)C3)cc2)C[C@H]1C(=O)N[C@@H](C)c1ccccc1)C(C)(C)C [Compound 50]	< 250 nM
CN[C@@H](C)C(=O)NC(C(=O)N1C[C@@H](NC(=O)CNC(=O)c2cccc(C(=O)NCC(=O)N[C@H]3C[C@@H](C(=O)N[C@@H]4CCCc5ccccc54)N(C(=O)[C@@H](NC(=O)[C@H](C)NC)C(C)(C)C)C3)c2)CC1C(=O)N[C@@H]1CCCc2ccccc21)C(C)(C)C (some centres unmarked) [Compound 37]	> 1000 nM
CN[C@@H](C)C(=O)N[C@H](C(=O)N1C[C@@H](NC(=O)c2ccc(C(=O)N[C@H]3C[C@@H](C(=O)NCCc4ccccc4)N(C(=O)[C@@H](NC(=O)[C@H](C)NC)C(C)(C)C)C3)cc2)C[C@H]1C(=O)NCCc1ccccc1)C(C)(C)C [Compound 20]	< 50 nM
CN[C@@H](C)C(=O)N[C@H](C(=O)N1C[C@@H](NC(=O)C2CCC(C(=O)N[C@H]3C[C@@H](C(=O)N[C@@H]4CCCc5ccccc54)N(C(=O)[C@@H](NC(=O)[C@H](C)NC)C(C)(C)C)C3)CC2)C[C@H]1C(=O)N[C@@H]1CCCc2ccccc21)C(C)(C)C (some centres unmarked) [Compound 52]	< 50 nM
CN[C@@H](C)C(=O)N[C@H](C(=O)N1C[C@@H](NC(=O)c2ccc(C(=O)N[C@H]3C[C@@H](C(=O)OC)N(C(=O)[C@@H](NC(=O)[C@H](C)NC)C(C)(C)C)C3)cc2)C[C@H]1C(=O)OC)C(C)(C)C [Compound 18]	> 1000 nM
CN[C@@H](C)C(=O)N[C@H](C(=O)N1C[C@@H](NC(=O)c2ccc(C(=O)N[C@H]3C[C@@H](C(=O)NCc4ccccc4-c4ccccc4)N(C(=O)[C@@H](NC(=O)[C@H](C)NC)C(C)(C)C)C3)cc2)C[C@H]1C(=O)NCc1ccccc1-c1ccccc1)C(C)(C)C [Compound 60]	< 50 nM
CN[C@@H](C)C(=O)N[C@H](C(=O)N1C[C@@H](NC(=O)Cc2ccc(CC(=O)N[C@H]3C[C@@H](C(=O)N[C@@H]4CCCc5ccccc54)N(C(=O)[C@@H](NC(=O)[C@H](C)NC)C(C)(C)C)C3)cc2)C[C@H]1C(=O)N[C@@H]1CCCc2ccccc21)C(C)(C)C [Compound 15]	< 50 nM
CN[C@@H](C)C(=O)N[C@H](C(=O)N1C[C@@H](NC(=O)c2ccc(C(=O)N[C@H]3C[C@@H](CN(CCc4ccccc4)C(C)=O)N(C(=O)[C@@H](NC(=O)[C@H](C)NC)C(C)(C)C)C3)cc2)C[C@H]1CN(CCc1ccccc1)C(C)=O)C(C)(C)C [Compound 25]	< 50 nM
CN[C@@H](C)C(=O)N[C@H](C(=O)N1C[C@@H](NC(=O)c2cncc(C(=O)N[C@H]3C[C@@H](C(=O)N[C@@H]4CCCc5ccccc54)N(C(=O)[C@@H](NC(=O)[C@H](C)NC)C(C)(C)C)C3)c2)C[C@H]1C(=O)N[C@@H]1CCCc2ccccc21)C(C)(C)C [Compound 41]	< 50 nM
CN[C@@H](C)C(=O)N[C@H](C(=O)N1C[C@@H](NC(=O)c2ccc(C(=O)N[C@H]3C[C@@H](C(=O)NCc4cccc(-c5ccccc5)c4)N(C(=O)[C@@H](NC(=O)[C@H](C)NC)C(C)(C)C)C3)cc2)C[C@H]1C(=O)NCc1cccc(-c2ccccc2)c1)C(C)(C)C [Compound 48]	< 250 nM
CN[C@@H](C)C(=O)N[C@H](C(=O)N1C[C@@H](NC(=O)CNC(=O)C(=O)NCC(=O)N[C@H]2C[C@@H](C(=O)N[C@@H]3CCCc4ccccc43)N(C(=O)[C@@H](NC(=O)[C@H](C)NC)C(C)(C)C)C2)C[C@H]1C(=O)N[C@@H]1CCCc2ccccc21)C(C)(C)C [Compound 36]	> 1000 nM
CN[C@@H](C)C(=O)N[C@H](C(=O)N1C[C@@H](NC(=O)CCCC(=O)N[C@H]2C[C@@H](C(=O)N[C@@H]3CCCc4ccccc43)N(C(=O)[C@@H](NC(=O)[C@H](C)NC)C(C)(C)C)C2)C[C@H]1C(=O)NC1CCCc2ccccc21)C(C)(C)C (some centres unmarked) [Compound 14]	< 50 nM
CN[C@@H](C)C(=O)N[C@H](C(=O)N1C[C@@H](NC(=O)c2ccc(C(=O)N[C@H]3C[C@@H](C(=O)NCc4ccccc4)N(C(=O)[C@@H](NC(=O)[C@H](C)NC)C(C)(C)C)C3)cc2)C[C@H]1C(=O)NCc1ccccc1)C(C)(C)C [Compound 46]	< 250 nM
CN[C@@H](C)C(=O)N[C@H](C(=O)N1C[C@@H](NC(=O)c2ccc(C(=O)N[C@H]3C[C@@H](C(=O)NC4Cc5ccccc5C4)N(C(=O)[C@@H](NC(=O)[C@H](C)NC)C(C)(C)C)C3)cc2)C[C@H]1C(=O)NC1Cc2ccccc2C1)C(C)(C)C [Compound 61]	< 50 nM
